Results: patent US20090291857A1, “METHODS TO IDENTIFY INHIBITORS OF THE UNFOLDED PROTEIN RESPONSE” (THE BOARD OF TRUSTEES OF THE LELAND STANFORD JUNIOR …, priority 2006, published 2009)

How the values were obtained:
[1] = molecular target: T1, IRE1α (Homo sapiens, UniProt O75460); assay: IRE1α expression and kinase function (phospho-IRE1α immunoblot); format: cell-based
T1 construct: endogenous in cells; host or cells: HT1080
Experimental: Cells (2×10^6) were cultured in 10-cm dishes, collected using a cell scraper at 4° C., and lysed by addition of 150 μl cell lysis buffer [50 mM Tris pH 7.4, 150 mM NaCl, 10% glycerol, 0.5% Triton X-100. 0.5% NP-40, 2 mM Na3VO4, 20 mM beta-glycerophosphate, 10 mM NaF, 1 mM DTT, 1 mM PMSF). Lysates were centrifuged for 5 min at 10,000×g, and proteins (˜40 μg) were resolved by SDS-PAGE followed by semi-dry transfer to nitrocellulose membranes. Membranes were blocked in TBS-5% milk supplemented with 0.1% Tween-20. The blots were then probed overnight with relevant antibodies, washed, and incubated for 2 hours with species-specific secondary antibodies conjugated to horseradish peroxidase. After washing in block solution, immunoreactive material was detected by enhanced chemiluminescence (SuperSignal West Dura Extended, Pierce, Inc., Rockville, Ill.).
HT1080 cells were exposed to DMSO vehicle (lane 1), irestatin 9389 (2.5 μM; lane 2) for 16 hours or Tm (5 μg/ml; lane 3) for 8 hours. Following treatments, cells were harvested, lysed, and analyzed by immunoblotting using anti-Grp78 antibody (top) or anti-actin (bottom) as a loading control. […] Cell lysates were analyzed by Western immunoblotting using anti-IRE1α (bottom) or anti-phospho-IRE1α antibodies (top). […] Lysates were analyzed by Western blot using antisera specific for phospho-JNK1 (top) or total JNK1 (bottom). […]

[2] = tested on: HT1080 s.c. tumor xenografts; format: in vivo; details: 50 mg/kg i.p. every other day, 6 doses
Experimental: (§1) Female 4-6 week-old SCID (B6.CB17) mice supplied by Stanford University Animal Facility were housed in the same facility (American Association of Laboratory Animal Care-approved) with 12 hour light cycles. Food and water were provided ad libitum. All experiments were approved by the institutional care and use committee. The potential toxicities of irestatin 9389 were examined in SCID mice injected i.p. once daily over 4 consecutive days with increasing doses of irestatin 9389 or vehicle control. […] For xenografts, 2×10^6 HT1080 fibrosarcoma cells were resuspended in 50-75 μl PBS and injected s.c. in the dorsal flanks of host mice. When the implanted tumors reached a mean volume of ˜150 mm^3, mice were randomly assigned into different treatment groups. Mice were dosed by i.p. bolus injection with either vehicle (50% DMSO, 20% cremophor EL, 30% ethanol) or irestatin 9389 (50 mg/kg). Tumors (6-8 per group) were measured every 2-4 days with calipers. Tumor volume was calculated using the formula [(W^2×L) 0.52] where W=width and L=length.
A. Irestatin 9389 impairs IREla activity in implanted tumor xenografts. […] Tumor volumes were calculated based on caliper measurements taken every 3-5 days. Data points represent the mean volume calculated from at least 7 tumors per group, with SEM shown in one direction. […]

[3] = Toxicity of increasing doses in SCID mice; format: in vivo
Experimental: as §1

T1 sequence (O75460 19-977): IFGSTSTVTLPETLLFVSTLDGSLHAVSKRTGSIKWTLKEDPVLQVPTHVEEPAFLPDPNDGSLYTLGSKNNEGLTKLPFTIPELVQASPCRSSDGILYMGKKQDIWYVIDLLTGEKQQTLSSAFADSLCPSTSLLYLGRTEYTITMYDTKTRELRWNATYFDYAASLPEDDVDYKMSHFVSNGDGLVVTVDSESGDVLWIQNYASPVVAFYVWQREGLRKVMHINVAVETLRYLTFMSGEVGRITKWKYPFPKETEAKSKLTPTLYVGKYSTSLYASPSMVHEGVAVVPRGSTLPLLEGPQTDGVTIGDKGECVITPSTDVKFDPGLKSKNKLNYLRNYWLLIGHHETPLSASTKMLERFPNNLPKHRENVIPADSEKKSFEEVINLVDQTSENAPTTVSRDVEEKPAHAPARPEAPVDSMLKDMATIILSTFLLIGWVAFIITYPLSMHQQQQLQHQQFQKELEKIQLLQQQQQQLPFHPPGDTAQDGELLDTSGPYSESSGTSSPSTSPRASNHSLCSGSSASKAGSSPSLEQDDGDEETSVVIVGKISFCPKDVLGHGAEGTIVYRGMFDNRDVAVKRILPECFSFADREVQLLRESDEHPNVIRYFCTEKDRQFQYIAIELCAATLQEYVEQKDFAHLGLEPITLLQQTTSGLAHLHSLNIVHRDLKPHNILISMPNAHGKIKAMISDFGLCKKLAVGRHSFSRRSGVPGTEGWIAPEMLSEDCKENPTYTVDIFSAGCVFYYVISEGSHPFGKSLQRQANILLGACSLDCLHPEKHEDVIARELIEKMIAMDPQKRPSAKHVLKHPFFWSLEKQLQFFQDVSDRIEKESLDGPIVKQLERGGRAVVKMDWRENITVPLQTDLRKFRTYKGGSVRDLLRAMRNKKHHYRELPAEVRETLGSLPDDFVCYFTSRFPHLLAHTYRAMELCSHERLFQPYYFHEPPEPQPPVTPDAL

With Cc1csc(NC(=O)CSc2nc3c(c(C(F)(F)F)c2C#N)CCC3)n1 [Compound 9389] the “total level of IRE1α” value ([1]; 2.5 μM, 16 hours) was “no significant changes”, the “levels of phospho-IRE1α after Tm” value ([1]; 16 hours preincubation 2.5 μM, then Tm 5 μg/ml) was “rapid increase in levels of phospho-IRE1α” and the antitumor effect [2] was “significant cytostatic antitumor effects”. For the same compound, the “toxicity of dosing regimen” value ([3]; SCID mice, i.p., 50-60 mg/kg) was “without apparent toxicity” and the “dosing regimen of 50-60 mg/kg relative to LD50” value ([3]; female, SCID (B6.CB17), mouse, in vivo, 4 days) was 75 % of the LD50 value.
